According to US7462347B2, “Fluorescent membrane intercalating probes” (priority 2000, dated 2008):

Assays:
[1] = Absorbance/emission spectra in ethanol; assay type: physicochemical; set-up: key to Excitation Max / Emission Max: wavelength in nm; conditions: for Absorbance Max / Emission Max / Excitation Max: solutions in ethanol
Experimental: Referring now to Table 1 there are shown representations of the absorbance and emission properties of some example compounds of the present invention. Absorption and Fluorescence spectra were […] using 0.25 μM solutions in ethanol on a Jasco, Inc. UV-530 UV/VIS spectrophotometer and FP 750 spectrofluorometer, respectively. Approximate extinction coefficients were estimated from the absorbance scans by dividing the maximum absorbance by the nominal concentration ([…]).

[2] = Solubility of FR/NIR probes in ethanol, water and Diluent C; assay type: physicochemical
Experimental: Effects of the various combinations of asymmetrical and symmetrical alkyl chains and methene bridges on the solubility of the compounds of the present invention were examined. Compounds 8, 25, 13, 15 and 26 were all soluble in ethanol at concentrations≧1 mM. The more lipophilic probes 15 and 26, however, required sonication for a few minutes to achieve dissolution at 1 mM in ethanol. All example probes-were poorly soluble in water. Triplicate 1:50 dilutions of stock 1 mM probe solutions were made in either ethanol or test diluent. After 30 minutes at room temperature solutions were centrifuged at 10,000×g for 10 minutes to remove any microagregates and […] aliquots were transferred to 2.0 ml of ethanol for absorbance determinations. Based on the teachings of Leung et al. and on solubility specifications found on Sigma Certificates of Analysis for the commercial diluents (diluent supernatant absorbance at 30 minutes at least 60% of ethanol supernatant absorbance after 30 minutes), a preliminary specification at least 60% of the ethanol control was set as a surrogate for solubility sufficient to achieve cell labeling with S/N ratios greater than 100 and to minimize potential problems with brightness or reproducibility of labeling. None of the probes was as soluble after 30 minutes in Diluent C as PKH26 (86%±4% of ethanol control).

[3] = tested on: YAC-1 murine lymphoma cells; assay: Probe effects on cell viability and cell growth (Maximum Tolerated Concentration); assay type: cell-based; conditions: for Growth Inhibition / Cytotoxicity: at MTC; for Growth Inhibition: 22-24 hours culture, versus diluent alone; for Cytotoxicity: trypan blue exclusion immediately post-staining (T = 0)
Experimental: YAC-1 murine lymphoma cells were stained at a concentrations of 10^7 cells/ml with increasing concentrations of probe by rapidly admixing 2× cells suspended in Diluent C with 2× probe in Diluent C. After 5 minutes at room temperature, the staining was stopped by the addition of cell culture medium. Cells were then washed thoroughly (RPI1640+10.0% FBS) and cultured under standard conditions for 22-24 hours. Cell numbers were compared to those in a control culture treated with diluent alone.
Maximum Tolerated Concentration (MTC) of probe was defined as the highest concentration of probe at which (1) viability by trypan blue exclusion immediately post-staining was>90% and (2) YAC cell growth after 24 hours was no more than 10% different than growth of cells in diluent alone.

Compound | maximum fluorescence ([1]; excitation light of about 635 nm) [nm] | Absorbance Max [1] | Emission Max [1] | Excitation Max [1] | solubility retained in Diluent C after 30 minutes ([2]; Diluent C, 30 minutes) | Growth Inhibition [3] [%] | Cytotoxicity [3] [%] | emission maximum wavelength ([1]; excitation light of about 647 nm) [nm] | solubility retained in Diluent C after 30 minutes ([2]; 30 min, 20 µM) | solubility ([2]; organic solvent or mixture) [µM] | MTC (Maximum Tolerated Concentration) ([3]; YAC-1 cells, 5 minutes staining in Diluent C) [µM] | solubility after 30 minutes in Diluent C ([2]; 1:50 dilution of 1 mM stock, 30 minutes at room temperature)
CCCCCCCCCCCCCCCCCCCCCC[N+]1=C(/C=C/C=C/C=C2/N(CCCCCCCCCCCCCC)c3ccccc3C2(C)C)C(C)(C)c2ccccc21.[I-] [Compound 8] | 667 | 626 | 667 | 647 | approximately 65 % of solubility at T0 | <1 | <1 | – | – | – | – | –
CCCCCCCCCCCCCCCCCCCCCC[N+]1=C(/C=C/C=C/C=C2/N(CCCCCCCCCCCCCC)c3ccc4ccccc4c3C2(C)C)C(C)(C)c2c1ccc1ccccc21.[I-] [Compound 13] | – | 684 | 713 | 680 | – | <1 | <1 | 713 | – | – | – | –
CCCCCCCCCCCCCCCCCCCCCC[N+]1=C(/C=C/C=C/C=C/C=C2/N(CCCCCCCCCCCCCC)c3ccc4ccccc4c3C2(C)C)C(C)(C)c2c1ccc1ccccc21.[I-] [Compound 15] | – | 786 | 814 | 790 | approximately 65 % of solubility at T0 | <5 | <1 | – | – | – | – | –
CCCCCCCCCCCCCCCCCCCCCC[N+]1=C(/C=C/C=C/C=C2/N(CCCCCCCCCCCCCC)c3ccc4ccccc4c3C2(C)C)C(C)(C)c2ccccc21 [Compound 25] | – | 666 | 682 | 667 | – | <4 | <1 | – | greater than 55 % of solubility at T0 | ≥ 1000 | 10 | –
CCCCCCCCCCCCCCCCCCCCCC[N+]1=C(/C=C/C=C2/N(CCCCCCCCCCCCCC)c3ccccc3C2(C)C)C(C)(C)c2ccccc21.[I-] [PKH26, reference compound] | – | – | – | – | – | <1 | <1 | – | – | – | – | 86%±4%
